The values that follow come from patent publication US20080182751A1, “Brassicaceae Plant Materials and Method for Their Use as Biopesticides” (Idaho Research Foundation, Inc., priority 2006, published 2008).

Series [1] is described as follows: Stability of 4-hydroxybenzyl isothiocyanate in buffered aqueous solutions (citrate buffers). The series is classed as physicochemical. The following applies: citrate buffer. How it is done:
Stability of 4-Hydroxybenzyl Isothiocyanate in Buffered Media. Partially purified 4-hydroxybenzyl isothiocyanate was prepared by suspending 500 grams of S. alba seed meal in 2 liters of deionized water and extracting the mixture with 500 milliliters of ethyl acetate for 24 hours. The ethyl acetate extract was separated by decanting the top organic layer after centrifugation, dried with 100 g of anhydrous sodium sulfate over night, and concentrated under vacuum at laboratory temperature. The crude 4-hydroxybenzyl isothiocyanate extract was further purified by preparative column chromatography on silica gel (500 grams). […] Content of 4-hydroxybenzyl isothiocyanate within the fractions was verified by GC-MS using instrumentation and conditions as described previously. Fractions containing 4-hydroxybenzyl isothiocyanate were combined and concentrated under vacuum at laboratory temperature producing a yellowish, viscous fluid displaying only 4-hydroxybenzyl isothiocyanate and pentane/methylene chloride solvent peaks in the GC chromatogram. No further concentration of 4-hydroxybenzyl isothiocyanate was achieved using vacuum distillation because of its instability.
The pH stability of 4-hydroxybenzyl isothiocyanate was analyzed by incubating 25 μL of partially purified extract dissolved in 25 milliliters of eight different buffers with pH values ranging from 3.0 to 6.5 (FIG. 7). 0.1 M buffers were used, and were prepared by mixing 0.2 M sodium citrate and citric acid solutions in pre-calculated ratios ranging from 4 milliliters sodium citrate and 46 milliliters citric acid to 41 milliliters sodium citrate and 9 milliliters citric acid in a total volume of […]. Actual pH values of the buffers of 3.03, 3.52, 4.02, 4.49, 5.00, 5.46, 5.91, and 6.52 were verified using an Orion model 420A pH meter (Orion Research, Boston). At specific times during the incubation a 1-milliliter sample was withdrawn from the buffered reaction solution with a syringe and injected into a Waters Integrity HPLC system (2695 separation module, 996 PDA, and TMD) equipped with a 150×2 mm i.d., 5 μm Aqua C-18 column (Phenomenex). The instrument was operated at a constant flow rate of 200 μL/min with a gradient from 5 to 35% of methanol during each 30-minute run. Half-lives for 4 hydroxybenzyl isothiocyanate were estimated from straight lines obtained by plotting the natural logarithm of the normalized concentration versus time (FIG. 7). This experiment was repeated twice with two different meal extracts acquired by the same procedures from the same seed material. Half-lives from only one of the experiments are reported since the results for both experiments were similar.

Series [2] in a line: pH stability of 4-OH benzyl ITC in 5 buffer solutions. It is filed as physicochemical. How it is done: The pH stability of 4-OH benzyl ITC was assayed by incubating it in 5 buffer solutions (sodium acetate/acetic acid from pH range 3 to 5 and monosodium phosphate/phosphatic acid for pH above 5) with pHs ranging from 3.0 to 7.0. At specific times during the incubation a sample from the incubated solution was withdrawn with a syringe and injected into an HPLC-PDA (Waters Integrity system, separation module 2695, photodiode array detector 996, column Phenomenex Aqua C-18, 5 μm, 150×2 mm, with a constant flow rate of 200 μl/minute gradient from 5 to 35% of methanol in 30 minutes). The amount of 4-OH benzyl ITC was determined using calibration with benzyl ITC.

Series [3] deals with weeds. The following applies: Harvey 1931; cited from earlier work.
The subject of series [4] is cotton. The following applies: solutions sprayed directly on vegetative growth (Harvey 1931); cited from earlier work.
Series [5] relates to wheat. The following applies: effect no longer observed at 69 days post application (Bissey and Butler 1934); cited from earlier work.

A word on the half-life: it is how long it takes for the measured level to halve. Low readings indicate fast loss, high ones slow loss. `Oc1ccc(CN=C=S)cc1` [4-hydroxybenzyl isothiocyanate]: the half-life was 5.35 h in series [1] (pH 3.0 buffer); 5.2 h in series [1] (pH 3.5 buffer); 4.5 h in series [1] (pH 4.0 buffer); 3.25 h in series [1] (pH 4.5 buffer); 1.67 h in series [1] (pH 5.0 buffer); 0.817 h in series [1] (pH 5.5 buffer). The half-life was 0.267 h in series [1] (pH 6.0 buffer); 0.1 h in series [1] (pH 6.5 buffer); 3.6 h in series [2] (sodium acetate/acetic acid buffer, pH 3.0). Moreover, the “Half Life” value in series [2] (pH 3) turned out to be 3.6 h; in series [2] (pH 4) it was 2.1 h; in series [2] (pH 5) it was 1.5 h; in series [2] (pH 6), 0.1 h; in series [2] (pH 7, listed as isothiocyanate precursor) it was 0.08 h.

For `N#CS` [SCN^−, ionic thiocyanate], in series [3], the “rate necessary for complete plant kill for 4 months” value is given as 1,366 kg SCN^−/ha and the “rate removing a large percentage of the weeds” value is on record as 137 kilograms/SCN^− ha. The “rate at which cotton defoliation was possible” value in series [4] was 8.6 kilograms SCN^−/ha. In addition, the “application rate causing inhibition of wheat germination” value in series [5] is reported as 342 kilograms SCN^−/ha.
